Measured values taken from US9279157B2, “EMX2 in cancer diagnosis and prognosis” (The Regents of the University of California, priority 2009, dated 2016).
Entries after “also recorded” stand apart in the source; their conditions may differ.

Experiments:
Type in all cases: cell-based, human
[1] = system: TE-7 cells; assay: DAC treatment negative control, EMX2 expression by semi-quantitative RT-PCR in TE-7; settings: TE-7 cells that endogenously expressed EMX2
[2] = system: EMX2 expression in NSCLC cell lines; assay: DAC de-methylation treatment of NSCLC cell lines, EMX2 expression by semi-quantitative RT-PCR; settings: 5 μM DAC, NSCLC / lung cancer cell lines with initially silenced EMX2
Description: Reverse transcription-polymerase chain reaction (RT-PCR) was performed in a GeneAmp PCR system 9700 (Applied Biosystems, Foster City, Calif.), using an RT-PCR kit (SuperScript II one-step RT-PCR with Platinum Taq kit; Invitrogen, Carlsbad, Calif.) according to the manufacturer's protocol. Primers for RT-PCR were obtained from Operon Biotechnologies (Huntsville, Ala.). Total RNA of normal human lung was obtained from the Biochain Institute (Hayward, Calif.). Total RNA (500 ng) was used for each reaction. Primer sequences were as follows: human EMX2 DNA, Forward primer; 5′-[…]-3′ (SEQ ID NO: 3), Reverse primer; 5′-[…]-3′ (SEQ ID NO:4).
Human NSCLC cell lines H1299, H322 and A427 were purchased from American Type Culture Collection (ATCC), (Manassas, Va.). These cell lines were cultured in RPMI 1640 supplemented with 10% fetal bovine serum, penicillin (100 IU/mL) and streptomycin (100 μg/mL). All cells were cultured at 37° C. in a humidified incubator with 5% CO2. Total RNA from cell lines was isolated using RNeasy Mini kit (Qiagen). Treatment with 5 μM 5-aza-2′-deoxycytidine (DAC; Sigma) was done according to Clement G. et al., “Epigenetic alteration of the Wnt inhibitory factor-1 promoter occurs early in the carcinogenesis of Barrett's esophagus.” Cancer Sci 99:46-53 (2008).
Cell Culture and 5-Aza-2′-deoxycytidine (DAC) Treatment. […]

[3] = system: OE33 cells; assay: DAC de-methylation treatment, EMX2 expression by semi-quantitative RT-PCR in OE33; settings: OE33 cells that did not originally express EMX2
[4] = system: H1299 cells stably transfected with EMX2; assay: MTS assay of chemo-synergic effect between EMX2 and cisplatin; settings: compared with cisplatin or EMX2 alone, cisplatin 0.3 ng/ml (FIG. 23D)
Description: The chemo-synergic effect between EMX2 and cisplatin was examined in order to determine whether EMX2 could sensitize NSCLC cells to cisplatin treatment. The H1299 lung cancer cell line was stably transfected with EMX2 The chemo-synergic effect between EMX2 and cisplatin was measured in this cell line by MTS assay (Promega, Madison, Wis.).
Stable EV- or EMX2 transfected cells were plated in 96-well plates at a density of 500 cells per well in 100 μl of culture medium with G418. Medium was changed every three days. Cell viability was evaluated by CELLTITER 96 Aqueous one solution cell proliferation assay (MTS assay) (Promega, Madison, Wis.) on days 1-7. Briefly, 20 μl of reagent was added to each well and incubated in a culture hood for 2 hr. Absorbance at 490 nm was measured with a kinetic microplate reader (Vmax; Molecular Devices, Sunnyvale, Calif.) and was used as a measure of cell number. Experiments were repeated three times.
Proliferation Assays. Stably transfected cells were plated in 96-well plates at a density of 500-1000 cells/well in 100 μl of G418 culture medium. Medium was changed every day. Cell viability was evaluated in triplicate by CellTiter 96 AQueous (Promega) per manufacturer's protocol. […] Colonies were then fixed by 10% formalin, stained with 0.5% crystal violet and counted.

Row | Structure (SMILES) | EMX2 expression levels after DAC treatment [1] | EMX2 expression after DAC treatment [2] | EMX2 expression after DAC treatment [3] | EMX2 expression after DAC treatment ([3]; listed as 5-aza-DAC) | Suppression of cell proliferation by cisplatin combined with EMX2 [4]
1 | Nc1ncn([C@H]2C[C@H](O)[C@@H](CO)O2)c(=O)n1 [DAC, 5-aza-2′-deoxycytidine] | not affected | restored EMX2 expression levels | restoration of EMX2 expression | restored | –
2 | N.N.[Cl][Pt][Cl] [cisplatin] | – | – | – | – | further enhanced; also recorded: more efficiently suppressed; also recorded: significantly enhanced
